Results reported in ChEMBL document CHEMBL1201862, “PubChem BioAssay data set” (2004).
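Step 1: Grow cells in 96-well plates. Step 2: Expose to compound for 48 hours at 5 concentrations. Step 3: Interpolate endpoints linearly; if unreached, use highest concentration. GI50 marks 50% less growth.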 The source made the active and inactive calls. Rule as the data show it: active = GI50 up to about 1.1 µM and inactive = higher.

How the values were obtained:
Test in all cases: DTP human tumour cell line panel, 48 h
786-0 = test system: 786-0
OVCAR-4 = test system: OVCAR-4
MDA-MB-435 = test system: MDA-MB-435
HOP-92 = test system: HOP-92
SK-MEL-2 = test system: SK-MEL-2
OVCAR-8 = test system: OVCAR-8
Malme-3M = test system: Malme-3M
KM12 = test system: KM12
HOP-62 = test system: HOP-62
SNB-19 = test system: SNB-19
SF-268 = test system: SF-268
RXF 393 = test system: RXF 393
CAKI-1 = test system: CAKI-1
EKVX = test system: EKVX
HT-29 = test system: HT-29
COLO 205 = test system: COLO 205
SK-OV-3 = test system: SK-OV-3
IGROV-1 = test system: IGROV-1
MDA-N = test system: MDA-N
T47D = test system: T47D
NCI/ADR-RES = test system: NCI/ADR-RES
SF-295 = test system: SF-295
HCT-15 = test system: HCT-15
SK-MEL-28 = test system: SK-MEL-28
ACHN = test system: ACHN
NCI-H226 = test system: NCI-H226
SK-MEL-5 = test system: SK-MEL-5
LOX IMVI = test system: LOX IMVI
SR = test system: SR
NCI-H23 = test system: NCI-H23
MCF7 = test system: MCF7
BT-549 = test system: BT-549
HCT-116 = test system: HCT-116
NCI-H522 = test system: NCI-H522
MOLT-4 = test system: MOLT-4
M14 = test system: M14
U-251 = test system: U-251
DU-145 = test system: DU-145
TK-10 = test system: TK-10
SNB-75 = test system: SNB-75
OVCAR-3 = test system: OVCAR-3
A549 = test system: A549
UO-31 = test system: UO-31
SW-620 = test system: SW-620
SN12C = test system: SN12C
HCC 2998 = test system: HCC 2998
OVCAR-5 = test system: OVCAR-5
NCI-H460 = test system: NCI-H460
PC-3 = test system: PC-3
UACC-62 = test system: UACC-62

SMILES: NNC(=O)COc1nc(-c2cccs2)nc2ccc(I)cc12
- GI50 (786-0): 25.5 µM (inactive)
- GI50 (OVCAR-4): 21.4 µM (inactive)
- GI50 (MDA-MB-435): 20.1 µM (inactive)
- GI50 (HOP-92): 18 µM (inactive)
- GI50 (SK-MEL-2): 24.5 µM (inactive)
- GI50 (OVCAR-8): 29 µM (inactive)
- GI50 (Malme-3M): 17 µM (inactive)
- GI50 (KM12): 17.1 µM (inactive)
- GI50 (HOP-62): 27.3 µM (inactive)
- GI50 (SNB-19): 13.4 µM (inactive)
- GI50 (SF-268): 20.8 µM (inactive)
- GI50 (RXF 393): 34.3 µM (inactive)
- GI50 (CAKI-1): 17.6 µM (inactive)
- GI50 (EKVX): 18.9 µM (inactive)
- GI50 (HT-29): 34.4 µM (inactive)
- GI50 (COLO 205): 26.8 µM (inactive)
- GI50 (SK-OV-3): 20.6 µM (inactive)
- GI50 (IGROV-1): 18.4 µM (inactive)
- GI50 (MDA-N): 31.7 µM (inactive)
- GI50 (T47D): 1.47 µM (inactive)
- GI50 (NCI/ADR-RES): 28.1 µM (inactive)
- GI50 (SF-295): 28.8 µM (inactive)
- GI50 (HCT-15): 20.7 µM
- GI50 (SK-MEL-28): 24.8 µM (inactive)
- GI50 (ACHN): 22.5 µM (inactive)
- GI50 (NCI-H226): 19.9 µM (inactive)
- GI50 (SK-MEL-5): 20.1 µM (inactive)
- GI50 (LOX IMVI): 17.6 µM (inactive)
- GI50 (SR): 15.8 µM (inactive)
- GI50 (NCI-H23): 15.3 µM (inactive)
- GI50 (MCF7): 15.8 µM (inactive)
- GI50 (BT-549): 15.3 µM (inactive)
- GI50 (HCT-116): 16.6 µM (inactive)
- GI50 (NCI-H522): 18.7 µM (inactive)
- GI50 (MOLT-4): 25.7 µM (inactive)
- GI50 (M14): 23.1 µM (inactive)
- GI50 (U-251): 18.7 µM (inactive)
- GI50 (DU-145): 21.7 µM (inactive)
- GI50 (TK-10): 18.2 µM (inactive)
- GI50 (SNB-75): 22.7 µM (inactive)
- GI50 (OVCAR-3): 15.9 µM (inactive)
- GI50 (A549): 18.7 µM (inactive)
- GI50 (UO-31): 21.1 µM (inactive)
- GI50 (SW-620): 34.5 µM (inactive)
- GI50 (SN12C): 23.1 µM (inactive)
- GI50 (HCC 2998): 20 µM (inactive)
- GI50 (OVCAR-5): 28.4 µM (inactive)
- GI50 (NCI-H460): 21.8 µM (inactive)
- GI50 (PC-3): 25.4 µM (inactive)
- GI50 (UACC-62): 19.8 µM (inactive)
